Source: patent US8207090B2, “Process for the anti-germination and/or biocide treatment of bulbs or tubers by means of CIPC and a terpene or terpene oil” (Xeda International, priority 2005, dated 2012)

Columns and labels:
[1] = Solubility of CIPC in solvents / terpenes; assay type: physicochemical; settings: with terpenes/terpene oils, at ambient temperature and as low as 0° C.
Method: Furthermore, CIPC dissolves with difficulty in conventional solvents, and maximum CIPC concentrations of approximately 30% (weight/volume) are generally obtained. At best, concentrations of approximately 54% at […] have been obtained. This low solubility entails the use of large amounts of solvent and/or formulation in order to obtain the required amounts of active ingredient. Nevertheless, efforts are generally made to limit the use of these solvents owing to their inherent toxicity and/or the danger of use that they entail, especially as a result of their low boiling points, which result in high risks of flammability.
It has now been discovered, and this is one of the subjects of the present invention, that terpenes and/or terpene oils, in particular eugenol, isoeugenol or clove oil, have a high capacity to dissolve CIPC, even in cases in which the two agents are applied separately. In particular, the use of terpenes and/or terpene oils of this type, applied before or after the CIPC, allows improved distribution of the CIPC on the potatoes. The separate application of the terpene or terpene oil therefore allows improved application, and accordingly penetration and efficacy, of the CIPC. […]

[2] = in conventional solvents, cited from earlier work
[3] = system: potatoes; settings: cited from earlier work; for Inhibition of tuber sprouts: in combination with CIPC

CC(C)OC(=O)Nc1cccc(Cl)c1 [CIPC, 3-chlorophenylisopropylcarbamate]
CIPC concentration [1]: greater than 50 % by weight of CIPC relative to the total volume of the solution
CIPC concentration, at best ([2]; at 180° C.): approximately 54%
Maximum CIPC concentration [2]: approximately 30 % (weight/volume)

C=C(C)C1CC=C(C)C(=O)C1 (stereo not drawn) [carvone]
Treated batches of potatoes suitable for sale ([3]; dosage of 16.6 ppm, agent on its own): 0%

CC/C=C\CC1=C(C)CCC1=O [jasmone]
Inhibition of tuber sprouts [3]: does not produce positive results

C=C(C)[C@H]1CC=C(C)CC1 [limonene]
Inhibition of tuber sprouts [3]: does not produce positive results
